In brackets after ≈: the same amount, converted by molar mass. Read-outs that look alike come from different tables or passages of the source.
Tests used:
[1] = mouse plasma protein binding (PPB) assay; format: in vitro ADME; conditions: average, read-out: Mouse Plasma Protein Binding % Bound Avg (converted)
Protocol: (§1) We have adapted a previously reported cyclooxygenase enzymatic assay utilizing LCMS quantification of PGE2 as the product of COX-1 and COX2 catalyzed conversion of arachidonic acid to evaluate the binding properties of newly synthesized ligands [Cao, 2011]. These optimized and miniaturized (384-well plates) LCMS-based COX-1 and COX2 enzymatic assays enabled us to quickly evaluate newly synthesized ligands for COX2 binding affinity and selectivity vs COX-1. Using a shorter ligand-enzyme incubation time in the LCMS assay (2 minutes vs 10 minutes) also permitted us to prioritize ligands with faster binding kinetics. Considering the relatively slow on-rate kinetics of known coxibs, due to their 3-step binding mechanism [Marnett, 2009], we believe that optimizing this critical parameter will be key to the successful development of a COX2 PET tracer. Using these enzymatic assays, we have evaluated>200 newly synthesized ligands against COX2 and >20 ligands against COX-1. Another critical property necessary for a good PET radiotracer is to have low non-specific binding (NSB) to increase the free fraction and maximize the signal to noise ratio. This property can be evaluated using in-vitro protein binding assays, and we have now evaluated>50 newly synthesized ligands in mouse, rat and human plasma protein binding (PPB) assays as well as >15 ligands in a mouse brain protein binding (BPB) assay.

[2] = Mouse Plasma Protein Stability (% Remaining); format: in vitro ADME; conditions: average
[3] = biological target: T1, human recombinant COX2 (hCOX2) (UniProt P35354); assay: LCMS-based COX2 enzymatic inhibition assay (PGE2 quantification); format: biochemical; parameters: COX2 2 minutes pge2/pge2d4 area ratio Avg; other: 2 minutes; readout pge2/pge2d4 area ratio; average; COX2 2 minutes pge2/pge2d4 area ratio Avg; LLE; average LLE; COX2 2 minutes pge2 area (counts) Avg; readout pge2 area (counts); other: 2 min; "ovine COX2 (oCOX2), human recombinant COX2 (hCOX2)"; conditions: for IC50: average
T1 sequence (P35354 1-604): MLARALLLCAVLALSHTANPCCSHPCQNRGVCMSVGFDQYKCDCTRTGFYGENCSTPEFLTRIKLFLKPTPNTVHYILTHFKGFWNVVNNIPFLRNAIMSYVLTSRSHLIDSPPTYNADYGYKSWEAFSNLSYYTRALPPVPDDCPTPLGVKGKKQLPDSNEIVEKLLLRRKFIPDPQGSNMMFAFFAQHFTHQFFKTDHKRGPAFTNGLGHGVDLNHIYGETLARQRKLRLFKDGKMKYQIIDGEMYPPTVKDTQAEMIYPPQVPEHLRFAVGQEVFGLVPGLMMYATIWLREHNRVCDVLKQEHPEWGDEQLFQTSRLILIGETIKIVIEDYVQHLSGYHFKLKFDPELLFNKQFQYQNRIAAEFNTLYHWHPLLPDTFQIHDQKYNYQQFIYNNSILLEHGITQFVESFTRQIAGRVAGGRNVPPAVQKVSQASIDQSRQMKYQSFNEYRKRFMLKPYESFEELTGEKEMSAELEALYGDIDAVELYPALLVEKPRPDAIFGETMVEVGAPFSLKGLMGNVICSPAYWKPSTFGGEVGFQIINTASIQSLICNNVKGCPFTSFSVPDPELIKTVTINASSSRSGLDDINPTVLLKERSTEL
Method in brief: (§2)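 PGE2 formed from arachidonic acid (final 5 μM, 2 min) was measured by LC-MS-MS against DMSO controls. Enzyme (oCOX-1 0.1 μg or hCOX2 0.2 μg) with hematin/epinephrine cofactors at pH 8.0 was given 10 min at 37 °C with compound first. Twelve-point curves run three times gave IC50.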

ovine COX-1 (oCOX-1) = biological target: T2, ovine COX-1 (oCOX-1) (Ovis aries, UniProt P05979); assay: LCMS-based COX-1 enzymatic inhibition assay (PGE2 quantification); format: biochemical; conditions: for COX1 10 minutes pge2/pge2d4 area ratio Avg. LLE / COX1 10 minutes pge2 area (counts) Avg. LLE: average LLE
T2 construct: purchased Cayman Chemicals (Ann Arbor, Mich.)
T2 sequence (P05979 25-600): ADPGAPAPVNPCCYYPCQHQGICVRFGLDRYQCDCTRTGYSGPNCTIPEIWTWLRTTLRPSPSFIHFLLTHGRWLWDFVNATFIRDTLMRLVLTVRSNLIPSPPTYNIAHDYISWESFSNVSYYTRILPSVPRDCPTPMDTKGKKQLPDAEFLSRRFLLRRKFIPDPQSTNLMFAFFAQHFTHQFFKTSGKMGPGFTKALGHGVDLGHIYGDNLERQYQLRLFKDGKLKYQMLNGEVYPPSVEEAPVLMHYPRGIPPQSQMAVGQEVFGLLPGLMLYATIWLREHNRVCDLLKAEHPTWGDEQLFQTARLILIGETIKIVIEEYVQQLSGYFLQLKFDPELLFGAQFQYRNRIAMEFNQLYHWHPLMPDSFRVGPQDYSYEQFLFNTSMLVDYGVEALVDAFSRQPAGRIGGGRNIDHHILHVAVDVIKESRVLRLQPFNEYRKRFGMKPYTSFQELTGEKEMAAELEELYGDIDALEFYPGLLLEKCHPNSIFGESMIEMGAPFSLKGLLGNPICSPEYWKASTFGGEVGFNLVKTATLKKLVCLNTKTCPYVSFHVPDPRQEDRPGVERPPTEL
Method in brief: as §2

[4] = Rat Plasma Protein Stability (% Remaining); format: in vitro ADME; conditions: average
PBS Solubility (no DMSO) = format: physicochemical; conditions: aqueous buffer, thermodynamic from solid, average
[5] = Human Plasma Protein Stability (% Remaining); format: in vitro ADME; conditions: average
[6] = rat plasma protein binding (PPB) assay; format: in vitro ADME; conditions: average, read-out: Rat Plasma Protein Binding % Bound Avg (converted)
Protocol: as §1

[7] = Human Microsome Stability; format: in vitro ADME; conditions: human microsomes
[8] = human plasma protein binding (PPB) assay; format: in vitro ADME; conditions: average, read-out: Human Plasma Protein Binding % Bound Avg (converted)
Protocol: as §1

[9] = 2 minutes, readout pge2/pge2d4 area ratio, average LLE
[10] = 2 minutes, readout pge2/pge2d4 area ratio, read-out: COX2 2 minutes pge2/pge2d4 area ratio Avg. IC50
[11] = 2 minutes, readout pge2 area (counts), average LLE
[12] = 2 minutes, readout pge2 area (counts), read-out: COX2 2 minutes pge2 area (counts) Avg. IC50
[13] = 10 minutes, readout pge2/pge2d4 area ratio
[14] = 10 minutes, readout pge2/pge2d4 area ratio, average, read-out: COX1 10 minutes pge2/pge2d4 area ratio Avg. IC50
[15] = 10 minutes, readout pge2 area (counts)
[16] = 10 minutes, readout pge2 area (counts), average, read-out: COX1 10 minutes pge2 area (counts) Avg. IC50

| SMILES | fraction unbound [1] | Mouse Plasma Protein Stability % Remaining Avg [2] [%] | COX2 2 minutes pge2/pge2d4 area ratio Avg. LLE [3, 9] | IC50 [3, 10] [nM] | COX2 2 minutes pge2 area (counts) Avg. LLE [3, 11] | IC50 [3, 12] [nM] | COX1 10 minutes pge2/pge2d4 area ratio Avg. LLE (ovine COX-1 (oCOX-1); [13]) | IC50 (ovine COX-1 (oCOX-1); [14]) [nM] | COX1 10 minutes pge2 area (counts) Avg. LLE (ovine COX-1 (oCOX-1); [15]) | IC50 (ovine COX-1 (oCOX-1); [16]) [nM] | IC50 (ovine COX-1 (oCOX-1)) [nM] | COX2 10 minutes pge2 area (counts) Avg. LLE ([3]; 10 minutes, readout pge2 area (counts), average LLE) | IC50 ([3]; 10 minutes, readout pge2 area (counts), read-out: COX2 10 minutes pge2 area (counts) Avg. IC50) [nM] | Rat Plasma Protein Stability % Remaining Avg [4] [%] | solubility (PBS Solubility (no DMSO)) [µM] | Human Plasma Protein Stability % Remaining Avg [5] [%] | fraction unbound [6] | Human Microsome Stability % Remaining Avg [7] [%] | fraction unbound [8] |
| --- | --- | --- | --- | --- | --- | --- | --- | --- | --- | --- | --- | --- | --- | --- | --- | --- | --- | --- | --- |
| C[C@H](Oc1cncc(-c2ccc(S(C)(=O)=O)cc2)n1)c1cccs1 (single isomer, unassigned) [Compound 53] | 0.001 | 36.7 | 4.852 | 25 | 4.799 | 27.6 | 2.125 | 8610 | 2.0112 | 11700 |  |  |  |  |  |  |  |  |  |
| Cc1ccsc1CNc1cccc(-c2ccc(S(C)(=O)=O)cc2)n1 [Compound 7] | 0.015 | 97.8 | 4.522 | 6.36 | 4.509 | 7.11 | 0.564 |  | 0.564 |  | 52000 |  |  |  |  |  |  |  |  |
| CS(=O)(=O)c1ccc(-c2cncc(SCc3cccs3)n2)cc1 [Compound 18] | 0.002 | 103.7 | 4.93 | 9.99 | 5.018 | 8.22 | 2.392 | 3140 | 2.308 | 4430 |  |  |  |  |  |  |  |  |  |
| COc1cc(NCc2cccs2)cc(-c2ccc(S(C)(=O)=O)cc2)n1 [Compound 32] | 0.015 | 100.9 | 4.433 | 15.5 | 4.493 | 14 |  |  |  |  |  | 5.338 | 2.5 |  |  |  |  |  |  |
| CS(=O)(=O)c1ccc(-c2nc(NCc3ccoc3)ccc2F)cc1 [Compound 48] |  |  |  | 22 |  | 20.1 |  |  |  |  |  |  |  | 128 | 40 (≈ 13.9 µg/mL) | 96 | 0.031 | 34 | 0.02 |
| CS(=O)(=O)c1ccc(-c2ccc3ccn(Cc4ccoc4)c3n2)cc1 [Compound 26] | 0.018 | 97.5 | 3.778 | 12 | 3.652 | 16.6 | 0.9493 | 11400 | 0.6431 | 16700 |  |  |  |  |  |  |  | 43 |  |

Source: patent US20220348590A1, “CYCLOOXYGENASE-2 INHIBITORS AND USES THEREOF” (The Board Institute, Inc., priority 2019, published 2022)
